Reference: paper PMC10544015 (Journal of Medicinal Chemistry, 2023)
Bridge positions count the residues as written; N and C are the ends. Square brackets hold non-standard residues; d marks the D form. Triazole bridges read from a SMILES are 1,4-linked. Peptide text beside a SMILES is read from it. Lys(N3) = [N-]=[N+]=NCCCC[C@H](N)C(=O)O; Pra = C#CC[C@H](N)C(=O)O; Ahx = NCCCCCC(=O)O

Tests used:
B16-BL6 cells = experiment: LDH cytotoxicity assay in B16-BL6 cells; assay type: cell-based, mouse; details: peptides 100 to 6.25 µM, Pbn 2.5 mM, HOS solution
Panx1 channels [1] = biological target: T1, Panx1 channels (Mus musculus, UniProt Q9JIP4); experiment: HOS-induced ATP release assay in B16-BL6 cells; details: for inhibition at 100 µM: B16-BL6, read-out: % ATP release inhibition at 100µM (in B16-BL6 cells)
T1 sequence (Q9JIP4 whole entry): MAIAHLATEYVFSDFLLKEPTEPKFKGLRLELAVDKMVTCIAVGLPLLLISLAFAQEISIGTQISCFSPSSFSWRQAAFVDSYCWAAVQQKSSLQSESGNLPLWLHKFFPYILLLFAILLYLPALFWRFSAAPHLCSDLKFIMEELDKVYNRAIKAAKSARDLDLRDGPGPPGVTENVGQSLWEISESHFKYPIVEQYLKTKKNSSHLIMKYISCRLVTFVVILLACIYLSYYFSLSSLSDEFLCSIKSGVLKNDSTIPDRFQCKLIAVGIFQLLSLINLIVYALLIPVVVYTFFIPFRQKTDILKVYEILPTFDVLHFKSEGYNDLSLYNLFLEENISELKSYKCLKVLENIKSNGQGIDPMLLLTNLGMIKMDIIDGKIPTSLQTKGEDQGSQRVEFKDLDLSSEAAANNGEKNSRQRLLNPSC

Panx1 channels [2] = biological target: T1, Panx1 channels; experiment: Yo-Pro-1 dye uptake assay in B16-BL6 cells; assay type: cell-based; details: for decrease of HOS-induced Yo-Pro-1 uptake: 100 µM, 30 min HOS
Experimental: The ability of the two previously identified lead compounds, SBL-PX1–42 and SBL-PX1-44, to affect the cellular uptake of ions and small molecules through Panx1 channels was evaluated in Yo-Pro-1 uptake assays. Yo-Pro-1 is a small fluorescent dye of 629 Da able to diffuse into cells through open Panx1 channels and emit green fluorescence when binding to nucleic acids in the cells.[66],[67] A representative example showing Yo-Pro-1 uptake over time is given in the Supporting Information (Figure S4). As expected, HOS induced a rapid Yo-Pro-1 uptake, which continued to increase gradually over time. […] While a small nonsignificant inhibition (14%) of Yo-Pro-1 uptake was observed when cells were exposed to 100 μM of ^10Panx1, the same concentration of the SBL-PX1-42 or SBL-PX1-44 analogues decreased Yo-Pro-1 uptake by 26 and 27%, respectively (Figure 3E). […] Among other possibilities, the reduced efficacy of the peptidomimetics in Yo-Pro-1 uptake assays, as compared to ATP release assays, may be attributed to the difference in size between ATP and Yo-Pro-1 or to the different repartition of charges in the two molecules.
B16-BL6 cells were plated on 96-well plates and grown until confluency. […] Cells were then incubated in the HOS solution containing the aforementioned compounds. Yo-Pro-1 (5 μM, Life Technologies) was added to the cells, and fluorescence was continuously recorded for 30 min with FDSS/μCELL Functional Drug Screening System (Hamamatsu Photonics). Yo-Pro-1 uptake in each condition was expressed as a percentage of HOS-induced Yo-Pro-1 uptake. […] Triplicates were performed for each independent experiment.

H9c2 cells = experiment: ATP release assay in Panx1-lacking H9c2 cells (specificity); assay type: cell-based, rat; details: peptides 100 or 12.5 µM, Pbn 2.5 mM, 30 min HOS
Description: The cardiomyoblast cell line (H9c2) was chosen to assess the specificity of the stapled ^10Panx1 analogues. Panx1 mRNA was not found in undifferentiated H9c2 cells or after differentiation into cardiomyocyte-like cells, while it was readily detected in our positive controls (kidney and liver samples; Supporting Information, Figure S5B). The absence of Panx1 protein expression was confirmed by Western blot analysis in both undifferentiated and differentiated H9c2 cells (Supporting Information, Figure S5C) as well as by immunostaining on H9c2 cells (Supporting Information, Figure S5D). […] Of note, the low concentration of ATP release in H9c2 cells compared to B16-BL6 cells (47 vs 513 nM, respectively, see dotted line in Supporting Information, Figure S5E) cannot be attributed to low cellular content of the metabolite because a high level of ATP was found in the supernatant (1170 nM) when cells were lysed with Triton X-100.
(§1) Triplicates were performed for each independent experiment.

Panx1 channels [3] = biological target: T2, Panx1 channels (Homo sapiens, UniProt Q96RD7); experiment: HOS-induced ATP release assay in EA.hy926 endothelial cells; assay type: cell-based; details: for inhibition at 100 µM: EA.hy 926, read-out: % ATP release inhibition at 100µM (in EA.hy926 cells)
T2 construct: host or cells: EA.hy926 human endothelial cells
T2 sequence (Q96RD7 whole entry): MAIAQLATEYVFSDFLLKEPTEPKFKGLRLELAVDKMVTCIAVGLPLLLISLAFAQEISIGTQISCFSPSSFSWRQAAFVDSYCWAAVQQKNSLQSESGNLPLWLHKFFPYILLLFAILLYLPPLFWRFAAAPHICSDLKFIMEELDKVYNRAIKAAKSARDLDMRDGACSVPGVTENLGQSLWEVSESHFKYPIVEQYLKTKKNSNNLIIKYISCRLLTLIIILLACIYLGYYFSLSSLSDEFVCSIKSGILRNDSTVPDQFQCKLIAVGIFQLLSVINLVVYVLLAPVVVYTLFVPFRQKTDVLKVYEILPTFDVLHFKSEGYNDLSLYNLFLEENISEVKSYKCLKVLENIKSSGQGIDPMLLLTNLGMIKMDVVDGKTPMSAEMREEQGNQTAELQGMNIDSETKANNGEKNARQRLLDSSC
Experimental: Similar to B16-BL6 cells, a 2–3-fold enhancement of ATP release from EA.hy926 cells was observed upon HOS stimulation (Figure 7E). However, the absolute levels of ATP release were lower in these endothelial cells (around 300 vs 500–600 nM in B16-BL6 cells). As expected, Pbn reduced HOS-induced ATP release from EA.hy926 cells, albeit by a lower fraction than the one observed in B16-BL6 cells (Figure 7E vs7A). The reason for this different efficacy of Pbn is unknown but may be due to its nonspecific action on other ATP release channels or transporters,[68] of which the expression naturally varies among different cell types. […] The water-soluble double-stapled ^10Panx1 peptidomimetic SBL-PX1-206 reduced HOS-induced ATP release from EA.hy926 cells by about 25% at 12.5 μM. […] Stapled and double-stapled ^10Panx1 analogues were also not cytotoxic when tested at 100 and 12.5 μM in EA.hy926 cells (Supporting Information, Figure S8).
as §1

circular dichroism = details: PBS (10 mM phosphate, 137 mM NaCl, 2.7 mM KCl); pH 7.4; rt °C; 100 uM
[4] = In vitro proteolytic stability in human plasma; assay type: in vitro ADME
Experimental: The proteolytic stability of the peptides was determined through in vitro stability assays in human plasma, as previously reported.[31],[89] Briefly, a stock solution of the peptide was prepared at a concentration of 1–2 mm in Milli-Q water and was used for further dilutions. Prior to the actual stability testing, the selectivity of the assay and stability of the working solutions were evaluated in parallel with an assessment of the linearity, accuracy, and precision of the method using three separately prepared calibration curves. The samples were analyzed by RP-HPLC on an Agilent 1200 series gradient HPLC system in combination with an EC HPLC column EC 150/2 NUCLEODUR (C18 HTec, 3 μm length: 150 mm, ID: 2 mm. Macherey-Nagel). The half-lives of the peptides were calculated by interpolating the data based on the obtained calibration curve. Afterward, the log concentrations as a function of time were transferred to a semi-log chart. Metabolites were identified by reanalyzing the samples using LC-MS on the same system previously described.[31]

[5] = Circular dichroism spectroscopy (helicity); assay type: physicochemical; details: PBS, 20 to 90 °C
Experimental: Spectra were measured with a JASCO J-715 CD spectropolarimeter equipped with a temperature controller using a 1 mm path length quartz cuvette and a scan rate of […]. The spectra were recorded in the wavelength range of 190–260 nm with a resolution and a bandwidth of 0.5 and 1.0 nm, respectively. The sensitivity and scan rate of the spectrometer were set to 100 mdeg and 50 nm min^–1, respectively. Samples were prepared in phosphate-buffered saline (PBS, 10 mM phosphate, 137 mM sodium chloride, 2.7 mM potassium chloride, pH 7.4, at room temperature) to the final concentration of 100 μM with or without 2,2,2-trifluoroethanol (TFE). CD spectra were averaged over 3–5 scans with the baseline subtracted from analogous conditions as those for the samples and converted to the mean residue ellipticity. Helicity was calculated as previously reported (see the Supporting Information).[52]

[6] = Water solubility (observation); assay type: physicochemical

Row | Structure (SMILES) | cytotoxicity (extracellular LDH) (B16-BL6 cells) | reduction of HOS-induced ATP release (Panx1 channels [1]; 2.5 mM, B16-BL6 cells, 30 min HOS) | inhibition of Yo-Pro-1 uptake (Panx1 channels [2]; 2.5 mM, 30 min) | inhibition of ATP release in H9c2 cells (H9c2 cells) | reduction of HOS-induced ATP release from EA.hy926 cells (Panx1 channels [3]; 2.5 mM) | helicity (circular dichroism) | inhibition at 100 µM (Panx1 channels [1]) | decrease of HOS-induced Yo-Pro-1 uptake (Panx1 channels [2]) | fold longer half-life in human plasma compared to ^10Panx1 [4] | half-life t1/2 in human plasma ([4]; 37 °C) | inhibition at 100 µM (Panx1 channels [3]) | thermal stability of α-helical profile (CD at varying temperatures) [5] | only identified metabolite (lysine of solubilizing tail cleaved) present in solution ([4]; after 24 h, human plasma, 37 °C) | reduction of HOS-induced ATP release from EA.hy926 cells (Panx1 channels [3]; 12.5 µM) | water solubility [6]
1 | CCCN(CCC)S(=O)(=O)c1ccc(C(=O)O)cc1 [Pbn, probenecid, reference compound] | no cytotoxicity | 61% | final lower level than the basal Tyrode conditions | No inhibition | around 35% |  |  |  |  |  |  |  |  |  | 
2 | CC(=O)N[C@@H](CO)C(=O)N[C@@H](Cc1c[nH]c2ccccc12)C(=O)N[C@@H](CCCNC(=N)N)C(=O)N[C@@H](CCC(N)=O)C(=O)N[C@@H](C)C(=O)N[C@H]1Cc2cn(nn2)CCCC[C@@H](C(=O)N[C@@H](Cc2ccc(O)cc2)C(N)=O)NC(=O)[C@H](CC(=O)O)NC(=O)[C@H](C(C)C)NC(=O)[C@H](Cc2ccccc2)NC1=O [SBL-PX1-42] | no cytotoxicity |  |  |  |  | 56% | 39% | 26% | 30 fold | 1.102 ± 0.00867 h | 26% | high thermal stability |  |  | 
3 | CC(=O)N[C@H]1Cc2cn(nn2)CCCC[C@@H](C(=O)N[C@@H](C)C(=O)N[C@@H](Cc2ccccc2)C(=O)N[C@H](C(=O)N[C@@H](CC(=O)O)C(=O)N[C@@H](CO)C(=O)N[C@@H](Cc2ccc(O)cc2)C(N)=O)C(C)C)NC(=O)[C@H](CCC(N)=O)NC(=O)[C@H](CCCNC(=N)N)NC(=O)[C@H](Cc2c[nH]c3ccccc23)NC1=O [SBL-PX1-44] | no cytotoxicity |  |  |  |  | 41% | 33% | 27% | 30 fold | 1.04 ± 0.0418 h | 41% |  |  |  | 
4 | CC(C)[C@@H]1NC(=O)[C@H](Cc2ccccc2)NC(=O)[C@@H](NC(=O)[C@@H]2CCCCn3cc(nn3)C[C@H](NC(=O)CCCCCNC(=O)[C@@H](N)CCCCN)C(=O)N[C@@H](Cc3c[nH]c4ccccc34)C(=O)N[C@@H](CCCNC(=N)N)C(=O)N[C@@H](CCC(N)=O)C(=O)N2)Cc2cn(nn2)CCCC[C@@H](C(=O)N[C@@H](Cc2ccc(O)cc2)C(N)=O)NC(=O)[C@H](CC(=O)O)NC1=O [SBL-PX1-206] (H-K[Ahx][Pra]WRQ[Lys(N3)][Pra]FVD[Lys(N3)]Y-NH2; triazole 3-7, 8-12 (inferred)) |  |  |  |  |  | 44% |  |  |  |  | 15% |  | around 80% | about 25% | water-soluble
